Measured values from patent publication US6872690B2, “Herbicidal 2-alkynyl-pyri (mi) dines” (WYETH, priority 2001, dated 2005).

Legend:
Format in all cases: in vivo
Abutilon theophrasti [1] = test: Pre-emergence test; settings: 0.400 kg/ha, 3 weeks after treatment
Procedure: (§1) To evaluate their herbicidal activity, compounds according to the invention are tested using a representative range of plants:
(§2) The pre-emergence tests involve spraying a liquid formulation of the compound onto the soil in which the seeds of the plant species mentioned above has recently been sown.
(§3) The soil used in the tests is a prepared horticultural loam. The formulations used in the tests are prepared from solutions of the test compounds in acetone containing 0.4% by weight of an alkyl-phenol/ethylene oxide condensate available under the trade mark TRITON X-155. These acetone solutions are diluted with water and the resulting formulations applied at dosage levels corresponding to 0.013 kg, 0.025 kg, 0.100 kg or 0.400 kg of active material per hectare in a volume equivalent to 900 litres per hectare. In these tests untreated sown soil are used as controls. From 2 to 4 weeks after treatment, the tests are terminated and each pot is examined and rated according to the rating system set forth below: […]

Alopecurus myosuroides [2] = test: Pre-emergence test; settings: 3 weeks after treatment
Procedure: as §1, §2, §3

Cassia obtusifolia [3] = test: Pre-emergence test; settings: 3 weeks after treatment
Procedure: as §1, §2, §3

Digitaria sanguinalis [4] = test: Pre-emergence test; settings: 3 weeks after treatment
Procedure: as §1, §2, §3

Echinochloa crus-galli [5] = test: Pre-emergence test; settings: 3 weeks after treatment
Procedure: as §1, §2, §3

Galium aparine [6] = test: Pre-emergence test; settings: 3 weeks after treatment
Procedure: as §1, §2, §3

Glycine max [7] = test: Pre-emergence test; settings: 0.400 kg/ha, 3 weeks after treatment
Procedure: as §1, §2, §3

Ipomoea hederacea [8] = test: Pre-emergence test; settings: 0.400 kg/ha, 3 weeks after treatment
Procedure: as §1, §2, §3

Lamium purpureum = test: Pre-emergence test; settings: 3 weeks after treatment
Procedure: as §1, §2, §3

Matricaria inodora [9] = test: Pre-emergence test; settings: 3 weeks after treatment
Procedure: as §1, §2, §3

Orysa sativa [10] = test: Pre-emergence test; settings: 3 weeks after treatment
Procedure: as §1, §2, §3

Setaria viridis [11] = test: Pre-emergence test; settings: 3 weeks after treatment
Procedure: as §1, §2, §3

Stellaria media [12] = test: Pre-emergence test; settings: 3 weeks after treatment
Procedure: as §1, §2, §3

Triticum aestivum [13] = test: Pre-emergence test; settings: 3 weeks after treatment
Procedure: as §1, §2, §3

Zea mays [14] = test: Pre-emergence test; settings: 3 weeks after treatment
Procedure: as §1, §2, §3

Abutilon theophrasti [15] = test: Post-emergence herbicidal activity test; settings: 2-4 weeks after treatment
Procedure: as §1
(§4) These acetone solutions are diluted with water and the resulting formulations applied at dosage levels equivalent of about 0.025 to 0. 4 kg per hectare of test compound per pot. After spraying the plants are placed on greenhouse benches and are cared for in the usual manner, commensurate with conventional greenhouse practices. From 2 to 4 weeks after treatment, the seedling plants are examined and rated according to the rating system provided above.

Alopecurus myosuroides [16] = test: Post-emergence herbicidal activity test; settings: 2-4 weeks after treatment
Procedure: as §1, §4

Cassia obtusifolia [17] = test: Post-emergence herbicidal activity test; settings: 2-4 weeks after treatment
Procedure: as §1, §4

Digitaria sanguinalis [18] = test: Post-emergence herbicidal activity test; settings: 2-4 weeks after treatment
Procedure: as §1, §4

Echinochloa crus-galli [19] = test: Post-emergence herbicidal activity test; settings: 2-4 weeks after treatment
Procedure: as §1, §4

Galium aparine [20] = test: Post-emergence herbicidal activity test; settings: 2-4 weeks after treatment
Procedure: as §1, §4

Glycine max [21] = test: Post-emergence herbicidal activity test; settings: 2-4 weeks after treatment
Procedure: as §1, §4

Ipomoea hederacea [22] = test: Post-emergence herbicidal activity test; settings: 2-4 weeks after treatment
Procedure: as §1, §4

Matricaria inodora [23] = test: Post-emergence herbicidal activity test; settings: 2-4 weeks after treatment
Procedure: as §1, §4

Orysa sativa [24] = test: Post-emergence herbicidal activity test; settings: 2-4 weeks after treatment
Procedure: as §1, §4

Setaria viridis [25] = test: Post-emergence herbicidal activity test; settings: 2-4 weeks after treatment
Procedure: as §1, §4

Stellaria media [26] = test: Post-emergence herbicidal activity test; settings: 2-4 weeks after treatment
Procedure: as §1, §4

Triticum aestivum [27] = test: Post-emergence herbicidal activity test; settings: 2-4 weeks after treatment
Procedure: as §1, §4

Zea mays [28] = test: Post-emergence herbicidal activity test; settings: 2-4 weeks after treatment
Procedure: as §1, §4

## Cn1nc(C(F)(F)F)cc1Oc1cccc(C#Cc2ccccc2)n1 [Example 31]
Abutilon theophrasti [1]
  Assessment (pre-emergence application) ABUTH: 2 (2-Slight effect)
Alopecurus myosuroides [2]; 0.025 kg/ha
  Assessment (pre-emergence application) ALOMY: 0 (0-No effect)
Alopecurus myosuroides [2]; 0.100 kg/ha
  Assessment (pre-emergence application) ALOMY: 1 (1-Trace effect)
Alopecurus myosuroides [2]; 0.400 kg/ha
  Assessment (pre-emergence application) ALOMY: 3 (3-Moderate effect)
Cassia obtusifolia [3]; 0.025 kg/ha
  Assessment (pre-emergence application) CASOB: 1 (1-Trace effect)
Cassia obtusifolia [3]; 0.100 kg/ha
  Assessment (pre-emergence application) CASOB: 3 (3-Moderate effect)
Cassia obtusifolia [3]; 0.400 kg/ha
  Assessment (pre-emergence application) CASOB: 3 (3-Moderate effect)
Digitaria sanguinalis [4]; 0.025 kg/ha
  Assessment (pre-emergence application) DIGSA: 2 (2-Slight effect)
Digitaria sanguinalis [4]; 0.100 kg/ha
  Assessment (pre-emergence application) DIGSA: 5 (5-Definite injury)
Digitaria sanguinalis [4]; 0.400 kg/ha
  Assessment (pre-emergence application) DIGSA: 8 (8-Approaching complete kill)
Echinochloa crus-galli [5]; 0.025 kg/ha
  Assessment (pre-emergence application) ECHCG: 0 (0-No effect)
Echinochloa crus-galli [5]; 0.100 kg/ha
  Assessment (pre-emergence application) ECHCG: 2 (2-Slight effect)
Echinochloa crus-galli [5]; 0.400 kg/ha
  Assessment (pre-emergence application) ECHCG: 5 (5-Definite injury)
Galium aparine [6]; 0.025 kg/ha
  Assessment (pre-emergence application) GALAP: 1 (1-Trace effect)
Galium aparine [6]; 0.100 kg/ha
  Assessment (pre-emergence application) GALAP: 2 (2-Slight effect)
Glycine max [7]
  Assessment (pre-emergence application) GLXMA: 1 (1-Trace effect)
Ipomoea hederacea [8]
  Assessment (pre-emergence application) IPOHE: 2 (2-Slight effect)
Lamium purpureum; 0.025 kg/ha
  Assessment (pre-emergence application) LAMPU: 7 (7-Good herbicidal effect)
Lamium purpureum; 0.100 kg/ha
  Assessment (pre-emergence application) LAMPU: 8 (8-Approaching complete kill)
Lamium purpureum; 0.400 kg/ha
  Assessment (pre-emergence application) LAMPU: 8 (8-Approaching complete kill)
Matricaria inodora [9]; 0.025 kg/ha
  Assessment (pre-emergence application) MATIN: 2 (2-Slight effect)
Matricaria inodora [9]; 0.100 kg/ha
  Assessment (pre-emergence application) MATIN: 6 (6-Herbicidal effect)
Matricaria inodora [9]; 0.400 kg/ha
  Assessment (pre-emergence application) MATIN: 7 (7-Good herbicidal effect)
Orysa sativa [10]; 0.025 kg/ha
  Assessment (pre-emergence application) ORYSA: 0 (0-No effect)
Orysa sativa [10]; 0.100 kg/ha
  Assessment (pre-emergence application) ORYSA: 1 (1-Trace effect)
Orysa sativa [10]; 0.400 kg/ha
  Assessment (pre-emergence application) ORYSA: 1 (1-Trace effect)
Setaria viridis [11]; 0.025 kg/ha
  Assessment (pre-emergence application) SETVI: 2 (2-Slight effect)
Setaria viridis [11]; 0.100 kg/ha
  Assessment (pre-emergence application) SETVI: 6 (6-Herbicidal effect)
Setaria viridis [11]; 0.400 kg/ha
  Assessment (pre-emergence application) SETVI: 8 (8-Approaching complete kill)
Stellaria media [12]; 0.025 kg/ha
  Assessment (pre-emergence application) STEME: 2 (2-Slight effect)
Stellaria media [12]; 0.100 kg/ha
  Assessment (pre-emergence application) STEME: 8 (8-Approaching complete kill)
Stellaria media [12]; 0.400 kg/ha
  Assessment (pre-emergence application) STEME: 9 (9-Complete kill)
Triticum aestivum [13]; 0.025 kg/ha
  Assessment (pre-emergence application) TRZWA: 0 (0-No effect)
Triticum aestivum [13]; 0.100 kg/ha
  Assessment (pre-emergence application) TRZWA: 0 (0-No effect)
Triticum aestivum [13]; 0.400 kg/ha
  Assessment (pre-emergence application) TRZWA: 0 (0-No effect)
Zea mays [14]; 0.025 kg/ha
  Assessment (pre-emergence application) ZEAMX: 1 (1-Trace effect)
Zea mays [14]; 0.100 kg/ha
  Assessment (pre-emergence application) ZEAMX: 2 (2-Slight effect)
Zea mays [14]; 0.400 kg/ha
  Assessment (pre-emergence application) ZEAMX: 2 (2-Slight effect)
Abutilon theophrasti [15]; 0.100 kg/ha
  Post-emergence application ABUTH: 3 (3-Moderate effect)
Abutilon theophrasti [15]; 0.400 kg/ha
  Post-emergence application ABUTH: 5 (5-Definite injury)
Alopecurus myosuroides [16]; 0.100 kg/ha
  Post-emergence application ALOMY: 3 (3-Moderate effect)
Alopecurus myosuroides [16]; 0.400 kg/ha
  Post-emergence application ALOMY: 5 (5-Definite injury)
Cassia obtusifolia [17]; 0.100 kg/ha
  Post-emergence application CASOB: 6 (6-Herbicidal effect)
Cassia obtusifolia [17]; 0.400 kg/ha
  Post-emergence application CASOB: 6 (6-Herbicidal effect)
Digitaria sanguinalis [18]; 0.100 kg/ha
  Post-emergence application DIGSA: 4 (4-Injury)
Digitaria sanguinalis [18]; 0.400 kg/ha
  Post-emergence application DIGSA: 4 (4-Injury)
Echinochloa crus-galli [19]; 0.100 kg/ha
  Post-emergence application ECHCG: 3 (3-Moderate effect)
Echinochloa crus-galli [19]; 0.400 kg/ha
  Post-emergence application ECHCG: 5 (5-Definite injury)
Galium aparine [20]; 0.100 kg/ha
  Post-emergence application GALAP: 4 (4-Injury)
Galium aparine [20]; 0.400 kg/ha
  Post-emergence application GALAP: 6 (6-Herbicidal effect)
Glycine max [21]; 0.100 kg/ha
  Post-emergence application GLXMA: 4 (4-Injury)
Glycine max [21]; 0.400 kg/ha
  Post-emergence application GLXMA: 4 (4-Injury)
Ipomoea hederacea [22]; 0.100 kg/ha
  Post-emergence application IPOHE: 7 (7-Good herbicidal effect)
Ipomoea hederacea [22]; 0.400 kg/ha
  Post-emergence application IPOHE: 8 (8-Approaching complete kill)
Matricaria inodora [23]; 0.100 kg/ha
  Post-emergence application MATIN: 3 (3-Moderate effect)
Matricaria inodora [23]; 0.400 kg/ha
  Post-emergence application MATIN: 4 (4-Injury)
Orysa sativa [24]; 0.100 kg/ha
  Post-emergence application ORYSA: 1 (1-Trace effect)
Orysa sativa [24]; 0.400 kg/ha
  Post-emergence application ORYSA: 2 (2-Slight effect)
Setaria viridis [25]; 0.100 kg/ha
  Post-emergence application SETVI: 5 (5-Definite injury)
Setaria viridis [25]; 0.400 kg/ha
  Post-emergence application SETVI: 7 (7-Good herbicidal effect)
Stellaria media [26]; 0.100 kg/ha
  Post-emergence application STEME: 5 (5-Definite injury)
Stellaria media [26]; 0.400 kg/ha
  Post-emergence application STEME: 6 (6-Herbicidal effect)
Triticum aestivum [27]; 0.100 kg/ha
  Post-emergence application TRZWA: 1 (1-Trace effect)
Triticum aestivum [27]; 0.400 kg/ha
  Post-emergence application TRZWA: 2 (2-Slight effect)
Zea mays [28]; 0.100 kg/ha
  Post-emergence application ZEAMX: 2 (2-Slight effect)
Zea mays [28]; 0.400 kg/ha
  Post-emergence application ZEAMX: 3 (3-Moderate effect)
